Laboratory results taken from the supplement of paper PMC8960247.
± gives the standard error.

Key:
621-103 (TSC2-rescued) = test: relative viability vs DMSO; higher = less cytotoxic; details: serum: 10% FBS, 72 h
621-102 (TSC2-deficient) = test: as above; details: serum: 10% FBS, 72 h
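Note: immortalized renal angiomyolipoma cells stably carrying empty vector or TSC2, dosed in 384-well plates in DMEM, viability normalized to vehicle-treated wells within each plate.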

SMILES | relative viability (621-103 (TSC2-rescued); 0.0001 µM) | relative viability (621-103 (TSC2-rescued); 0.001 µM) | relative viability (621-103 (TSC2-rescued); 0.01 µM) | relative viability (621-103 (TSC2-rescued); 0.1 µM) | relative viability (621-103 (TSC2-rescued); 1 µM) | relative viability (621-103 (TSC2-rescued); 10 µM) | relative viability (621-102 (TSC2-deficient); 0.0001 µM) | relative viability (621-102 (TSC2-deficient); 0.001 µM) | relative viability (621-102 (TSC2-deficient); 0.01 µM) | relative viability (621-102 (TSC2-deficient); 0.1 µM) | relative viability (621-102 (TSC2-deficient); 1 µM) | relative viability (621-102 (TSC2-deficient); 10 µM)
NC(=O)c1ccc(N(C(N)=O)c2c(F)cccc2F)nc1-c1ccc(F)cc1F [VX-702] | 101.5 ± 0.42% | 99.8 ± 1.8% | 99.92 ± 0.12% | 99.4 ± 1.5% | 96.56 ± 0.13% | 99.1 ± 1.8% | 107 ± 1.9% | 109 ± 1.9% | 96.7 ± 1.6% | 98.6 ± 1.4% | 111.1 ± 0.41% | 104 ± 4%
O=c1ncn2nc(Sc3ccc(F)cc3F)ccc2c1-c1c(Cl)cccc1Cl [VX-745] | 99.1 ± 1% | 101 ± 1.2% | 99.4 ± 1.5% | 100 ± 1.5% | 99.42 ± 0.31% | 98.127 ± 0.049% | 106 ± 5.1% | 112 ± 5.5% | 107 ± 1.1% | 104 ± 2.1% | 106 ± 4% | 93.3 ± 3.9%
CCO[C@@H]1OC(=O)C[C@@H]1NC(=O)[C@@H]1CCCN1C(=O)[C@@H](NC(=O)c1ccc(N)c(Cl)c1)C(C)(C)C [VX-765] | 111 ± 2.9% | 95.9 ± 4.8% | 101 ± 4.6% | 105 ± 6.8% | 101.8 ± 0.69% | 102 ± 4.9% | 109 ± 0.74% | 105 ± 4.9% | 116 ± 3.2% | 108 ± 4.6% | 101 ± 4% | 106 ± 1.8%
CC(C)(C)c1cc(C(C)(C)C)c(NC(=O)c2c[nH]c3ccccc3c2=O)cc1O [VX-770] | 101 ± 4.3% | 117 ± 6.1% | 114 ± 4.1% | 110 ± 3.3% | 112 ± 2.9% | 32.3 ± 8.3% | 97.8 ± 4.5% | 104 ± 5.4% | 116 ± 2.3% | 119 ± 3.2% | 111 ± 3.6% | 59.3 ± 16%
CCCCC(=O)N(Cc1ccc(-c2ccccc2-c2nnn[nH]2)cc1)[C@H](C(=O)O)C(C)C [Valsartan] | 101 ± 3.4% | 118.1 ± 0.48% | 115 ± 1.9% | 114 ± 6.2% | 110.2 ± 0.73% | 115 ± 2.4% | 85.7 ± 5% | 113 ± 4.4% | 117.3 ± 1% | 117 ± 5.9% | 107 ± 1.1% | 104 ± 1.3%
COc1cc2/c(=N/c3ccc(Br)cc3F)nc[nH]c2cc1OCC1CCN(C)CC1 [Vandetanib] | 102 ± 2.5% | 99.63 ± 0.8% | 98.84 ± 0.35% | 97.74 ± 0.94% | 98.3 ± 0.93% | 11.4 ± 1.8% | 94.4 ± 4.3% | 101 ± 3.8% | 109 ± 3.6% | 115 ± 1.7% | 102 ± 1.1% | 33.9 ± 2.9%
CCCc1nc(C)c2c(=O)nc(-c3cc(S(=O)(=O)N4CCN(CC)CC4)ccc3OCC)[nH]n12 [Vardenafil (Vivanza)] | 101 ± 2.4% | 103.3 ± 0.7% | 105 ± 1.5% | 104 ± 1.1% | 98.5 ± 4.4% | 98.6 ± 1.7% | 103 ± 2.4% | 104 ± 1.2% | 104 ± 3.8% | 104.8 ± 0.49% | 96.25 ± 0.9% | 97.2 ± 1.1%
Clc1ccc(Nc2nnc(Cc3ccncc3)c3ccccc23)cc1 [Vatalanib] | 104 ± 1.1% | 106 ± 2% | 106 ± 2.4% | 105 ± 1.4% | 103 ± 2.8% | 110.66 ± 0.097% | 94.7 ± 6.8% | 102 ± 9.1% | 115 ± 1.4% | 108 ± 1.8% | 110 ± 2.7% | 117.2 ± 0.94%
